Experimental data published in the METLIN SMRT retention time set (Domingo-Almenara et al. 2019).

Assay: gradient 5% acetonitrile 3 min, to 50% in 2 min, to 85% in 15 min, held 3 min, 100 µL/min
Conditions: column: Zorbax Extend-C18 2.1 x 50 mm; eluents: water / acetonitrile, 0.1% formic acid
How it was run: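 Retention times come from adduct peaks that were picked computationally and then checked by hand. The standards, pure and pooled in mixtures of ~100 molecules, were run on a Zorbax Extend-C18 column (2.1 × 50 mm, 1.8 μm) at 100 μL/min with water and acetonitrile, each with 0.1% formic acid. Detection was by quadrupole time-of-flight mass spectrometry in positive and negative ionization mode, with a dead volume of 40 μL and a dwell volume of 900 μL.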

Compound	RP-LC retention time [s]
CCOc1ccc(OCC)c(NC(=O)CSc2nccnc2Oc2ccccc2)c1	1190
C=CCn1c(=O)c2ccccc2n(Cc2nc(-c3ccc(OC)cc3)no2)c1=O	1020
CCN1C(=O)c2cccnc2Sc2cc(CNC(=O)c3ccc(OC)cc3)ccc21	755
CC(C)n1c(=O)sc2cc(S(=O)(=O)N3CCC(C(=O)N(C)Cc4ccccc4)CC3)ccc21	997
Cc1cc(C)cc(C(=O)N2CCc3nc[nH]c3C2)c1	584
CCC(C)NC(=O)C1CCCN(C(=O)c2cc(-c3ccccn3)n[nH]2)C1 (stereo unspecified)	611
COc1ccc(N2C(=O)CCC(C(=O)NCCCN3CCCCCC3)C2c2ccc(F)cc2)cc1 (stereo unspecified)	610
COc1nn(C)cc1C(=O)Nc1cc(-c2cccs2)nn1CCO	630
O=C(NCc1ccccc1F)c1ccc2c(c1)Sc1ncccc1C(=O)N2C1CC1	794
C=CCN1C(=O)COc2ccc(-c3csc(NC(=O)C4CCCCC4)n3)cc21	1060
COc1ccccc1-c1noc(Cn2c(=O)n(-c3ccc(C)cc3)c(=O)c3sccc32)n1	911
Cc1cc(NC(=O)CCc2nc(-c3ccc(N4CCCC4)cc3)no2)ccc1Br	1230
Cc1ccc(C(CC(=O)N2CCN(c3ccccn3)CC2)N2Cc3ccccc3C2=O)cc1 (stereo unspecified)	655
COC(=O)c1ccc(-c2csc(NC(=O)c3c(F)cccc3Cl)n2)cc1	945
O=C(Cc1ccsc1)N1C[C@H]2C[C@H](C1)[C@H]1CCCC(=O)N1C2	631
Cc1cccc2nnc(N3CCN(C(=O)c4ccncc4)CC3)n12	551
CCC(C)NC(=O)c1cn(-c2ncccc2-c2nc(-c3ccccc3)no2)cn1 (stereo unspecified)	858
CCc1noc(NC(C)=O)c1-c1ccc(OC)c(S(=O)(=O)Nc2ccc(OC)cc2)c1	749
Fc1ccccc1-c1nc(-c2cn(-c3ccccc3)nn2)no1	1230
Fc1ccc(-c2nc(-c3cn(Cc4ccccc4)nn3)no2)cc1	1090
CCOC(=O)c1noc2nc(C)nc(NCC3CCN(Cc4ccc(C)cc4)CC3)c12	705
COCCNC(=O)c1nn(-c2ccc(F)cc2)nc1CO	730

Compound	RP-LC retention time [s]
CCOC(=O)c1ccc(NC(=O)NCc2noc3ccc(C)cc23)cc1	944
CCC1Oc2ccc(S(=O)(=O)N3CCC(C(=O)Nc4ccc(C(C)C)cc4)CC3)cc2NC1=O (stereo unspecified)	1000
Cc1ccc(-n2ncc3c(NCc4ccc5c(c4)OCO5)ncnc32)cc1	939
O=C([C@@H]1C[C@H](F)CN1S(=O)(=O)Cc1ccc(Cl)cc1)N1CCCCC1	881
COc1ccc(C(=O)Nc2c(-c3ccccc3)nc3cc(C)ccn23)c(OC)c1	680
CC(C)CC(=O)NCCc1csc(-c2ccc(Cl)cc2)n1	881
CCSc1nnc(-c2nn(C)c3c2CN(C(=O)C2CCCCC2)CC3)n1C	791
O=C(c1csc(-c2cnccn2)n1)N1CCN(c2ccccc2Cl)CC1	866
COc1ccc2c(c1)CC(NC(=O)NCCCN1CCN(Cc3ccccc3)CC1)CO2 (stereo unspecified)	634
O=C(NCc1ccccc1)Nc1c(-c2ccc(F)cc2)nc2ccccn12	661
COc1ccc(C(O)CN2CCN(c3ccc(F)cc3)CC2)cc1 (stereo unspecified)	652
O=C(Cn1c(=O)nc(-c2ccccc2)c2ccccc21)NCCc1ccccn1	590
Cc1cccc(CNC(=O)c2cc3n(n2)CC(C)(C(=O)NCCC(C)C)N(C)C3=O)c1 (stereo unspecified)	801
Cc1ccc(-c2nc3nc(C)cc(NC(C)C)n3n2)cc1	782
CCN1CCN(c2ccc(-c3nc(-c4cccc(C)c4)no3)cn2)CC1	734
O=C(CCc1ccccc1)NC1CCN(c2cc(-c3ccccc3)[nH]n2)C1 (stereo unspecified)	643
COc1ccccc1/C=C/c1nc(-c2ccc3oc(C)nc3c2)no1	1080
COCCNC(=O)CCc1c(-c2ccc(Cl)cc2)nc2ccccn12	590
COc1ccc(NC(=O)C2CCN(S(=O)(=O)c3c(C)nn(-c4ccccc4)c3C)CC2)cc1	896
O=C(Nc1ccc(F)c(Cl)c1)N1CCCC1c1nc(-c2ccc(F)cc2F)no1 (stereo unspecified)	1070
COC(=O)CCSCC(=O)Nc1ccc(C)cc1C	742
COc1ccc(N2CCN(c3cc(SCC(=O)Nc4cc(Cl)ccc4C)ncn3)CC2)cc1	1130

Compound	RP-LC retention time [s]
COc1c(C(=O)N2CCN(c3ccccc3)CC2)sc2cccc(F)c12	1090
O=C(NCC1CC1)c1cn(C2CN(C(=O)CCc3c[nH]c4ccccc34)C2)nn1	712
O=C1COc2cc(Cl)ccc2N1Cc1nc(-c2ccc(OC(F)(F)F)cc2)no1	1220
CCC(=O)N(C1CCOCC1)C1CCN(S(=O)(=O)c2ccccc2Cl)CC1	840
CCCN(CC1CC1)C(=O)CCC[C@@H]1[C@H]2CCCN3CCC[C@@H](CN1C(C)=O)[C@@H]23	618
COCCN(C)C(=O)c1cn(C2CN(S(=O)(=O)C(C)C)C2)nn1	635
O=C1CCCc2cc(S(=O)(=O)N3CCCC3C(=O)NC3CCCCCC3)ccc2N1 (stereo unspecified)	782
COc1cccc(NC(=O)NCCCN2CCN(c3ccccc3)CC2)c1OC	582
COc1cccc(CNC(=O)N2CCN(Cc3c(C)noc3C)CC2)c1	593
CS(=O)(=O)c1ccc(CC(=O)N2CC(Cc3nncn3CC3CC3)C2)cc1	592
COC(=O)c1c(NCc2ccco2)c2cccc(Cl)c2[nH]c1=O	740
COc1cc2c(cc1OC)C(C(=O)NCCCN1CCC(C)CC1)C1c3ccccc3CCN1C2=O (stereo unspecified)	624
CC(C)Oc1ccc(CN2CCC3(CC2)CN(C)CC3c2nnc(C(C)C)o2)cc1 (stereo unspecified)	577
CNC(=O)[C@@H]1CN(C(=O)CCc2cc(OC)no2)C[C@H]1c1n[nH]c(C)n1	553
O=C(NCc1ccco1)C1CCN(C(=O)c2ncn3c2COC(c2ccc(Cl)cc2)C3)CC1 (stereo unspecified)	753
CCN1CCCn2cc(S(=O)(=O)Nc3ccc(Cl)cc3)cc2C1=O	765
Cc1cc(-c2nnc(C3CCC3)o2)c(C)n1CC(=O)NCc1ccc(F)cc1Cl	899
CCOc1ccc(NC(=O)N2CCC(n3cnc4ccc(Cl)cc4c3=O)CC2)cc1	844
CN1CCN(C(=O)O[C@H]2c3nccnc3C(=O)N2c2ccc(Cl)cn2)CC1	660
COCCCNC(=O)C1CCN(Cc2cc3ccccc3n2Cc2ccccc2)CC1	684
Cc1noc([C@@H]2CN(Cc3c(F)cccc3Cl)C[C@H]2CO)n1	605
Cc1cccc(CN2CC(N(C3CCOCC3)S(C)(=O)=O)C2)c1	621
